Test results taken from paper PMC10508484, “Development and application of a PBPK modeling strategy to support antimalarial drug development” (CPT: Pharmacometrics & Systems Pharmacology, 2023).
“And” between values parts separate entries of the source, which are not always exact repeats. Identical values can stand only once. Like-named read-outs stand apart in the source and are kept apart here. Blank lines part the entries; values can stand above or below the molecule they belong to.

How the values were obtained:
[1] = tested on: Caco-2 cells; settings: calibrated against propranolol; plasma as medium for atovaquone and piperaquine; ref Charman et al., 2020 1; cited from earlier work
[2] = cited from earlier work; for CL PO: clinically observed oral (in vivo) clearance, pyronaridine: blood, ref amodiaquine Winstanley et al., DEAQ Akande et al., 2015 8, Scarsi et al., 2014 35, Tarning et al., 2012 36, Orrell et al., 2008 37, DHA Na-Bangchang et al., 2004 42, lumefantrine Lefevre et al., 2002 52, Hoglund et al., 2015 53, mefloquine Charles et al., 2007 56, pyronaridine Jittama
[3] = In vitro flags for victim and perpetrator properties conferring DDI liability; format: in vitro ADME, human; settings: in vitro flag, mainly based on in vitro determinations
[4] = cited from earlier work; for Cmax: read-out: Cmax Obs
[5] = cited from earlier work; for fu: PBPK input
[6] = ref Charman et al., 2020 1; cited from earlier work
[7] = 2020 1, cited from earlier work
[8] = lumefantrine: ACD labs value; ref Charman et al., 2020 1; cited from earlier work
[9] = Fraction unbound in human liver microsomes (fumic); settings: extrapolated from value measured at 0.4 mg/mL to 0.1 mg/mL, method of Austin et al., 2002
[10] = measured (0.4 mg/mL protein where stated); ref Charman et al., 2020 1; cited from earlier work
[11] = PBPK simulation of drug-drug interactions (Simcyp V19); parameters: species or system human; settings: for AUC ratios Sim/Obs: ratio of simulated to clinically observed AUC ratio
Excerpt: Here, we provide three example applications where the available PBPK models were used to address questions relating to DDI assessment. […] Additional simulation methods are provided in Appendix S1.
(§1) All simulations, including the ones performed for the applications, were run using Version 19 of the Simcyp population-based PBPK simulator (Simcyp (Certara), Sheffield, UK) and unless stated otherwise, input parameters for all drugs are as specified (Supplementary Information Table S1). All simulations were run using ten virtual trials that were matched as closely as possible to the clinical study volunteers in terms of the number of subjects, their age, the proportion of males/females and according to the same study design.

[12] = in vitro; settings: human, plasma
[13] = cited from earlier work
[14] = molecular target: CYP3A4 (Homo sapiens, UniProt P08684)
CYP3A4, sequence (P08684 whole entry): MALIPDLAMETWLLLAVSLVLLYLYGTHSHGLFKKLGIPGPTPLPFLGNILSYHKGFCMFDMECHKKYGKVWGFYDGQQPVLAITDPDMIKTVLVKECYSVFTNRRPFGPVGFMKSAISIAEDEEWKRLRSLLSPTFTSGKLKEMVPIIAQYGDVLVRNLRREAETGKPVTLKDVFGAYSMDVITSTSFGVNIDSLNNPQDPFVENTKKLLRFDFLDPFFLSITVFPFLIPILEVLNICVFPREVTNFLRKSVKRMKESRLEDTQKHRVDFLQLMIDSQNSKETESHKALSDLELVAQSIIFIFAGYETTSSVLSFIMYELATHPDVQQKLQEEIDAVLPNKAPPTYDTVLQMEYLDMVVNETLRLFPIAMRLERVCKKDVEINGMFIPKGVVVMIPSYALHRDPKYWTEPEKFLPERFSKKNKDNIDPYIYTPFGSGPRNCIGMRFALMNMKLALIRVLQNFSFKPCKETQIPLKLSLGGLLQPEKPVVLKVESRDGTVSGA
Excerpt: (§2) In nearly all cases the fraction of systemic elimination metabolised by a given enzyme (fm) determined in vitro was unavailable in the literature.

[15] = PBPK simulation of plasma Cmax and AUC (Simcyp V19); parameters: species or system human; settings: single oral dose named in the block
Excerpt: as §1
The available clinical PK data for performance verification of simulations was largely in healthy volunteers of either Caucasian or South-East Asian (Thai or Vietnamese) descent. For Caucasian subjects the default Sim-Healthy Volunteers virtual population was used without modification. […] The case study simulations presented in this paper used the Sim-Healthy Volunteers virtual population.

[16] = Hepatic / HLM intrinsic clearance, enzyme not defined; settings: for fm additional / undefined metabolism: human
[17] = Blood to plasma ratio (B:P); settings: PBPK input; 0.55 = no uptake into RBC for a haematocrit of 45%
[18] = molecular target: CYP2C19 (Homo sapiens, UniProt P33261); assay: Metabolism by CYP2C19 (CLint, fm); format: in vitro ADME
CYP2C19, sequence (P33261 whole entry): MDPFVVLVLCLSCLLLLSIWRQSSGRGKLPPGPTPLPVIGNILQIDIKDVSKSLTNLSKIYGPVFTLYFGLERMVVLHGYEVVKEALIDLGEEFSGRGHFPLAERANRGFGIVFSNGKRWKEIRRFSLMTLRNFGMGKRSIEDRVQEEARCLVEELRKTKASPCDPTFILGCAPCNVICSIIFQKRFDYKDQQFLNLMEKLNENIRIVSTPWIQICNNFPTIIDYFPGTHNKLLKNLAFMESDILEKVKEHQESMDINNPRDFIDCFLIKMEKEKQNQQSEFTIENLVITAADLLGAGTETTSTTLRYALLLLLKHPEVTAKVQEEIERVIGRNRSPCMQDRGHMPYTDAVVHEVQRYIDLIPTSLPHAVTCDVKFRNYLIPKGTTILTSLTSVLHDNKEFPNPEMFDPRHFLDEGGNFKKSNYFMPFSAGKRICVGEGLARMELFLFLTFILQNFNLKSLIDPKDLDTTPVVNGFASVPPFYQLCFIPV
Excerpt: as §2

[19] = ref atovaquone Mepron Prescribing Information, 2008, Nixon et al., 2013 13, Rolan et al., 1997 14, azithromycin Foulds et al., 1990 20, chloroquine Ofori-Adjei et al., 1986 27, Walker et al., 1983 28, DHA Batty et al., 2004 41 (healthy volunteers), lumefantrine CDER submission 22-269, proguanil Wattanagoon et al., 1987 63, tafenoquine Dow et al., 2020 84
[20] = 200 mg SD, 0-inf, ref Wattanagoon et al., 1987 17
[21] = DDI of the respective line of Table S3
[22] = ratio of simulated to clinically observed Cmax ratio, DDI of the respective line of Table S3
[23] = PBPK input, ref amodiaquine, DEAQ Winstanley et al., 1987 9, atovaquone Rolan et al., 1997 14, azithromycin Lalak et al., 1993 23, carboxyprimaquine Mihaly et al., 1985 26, chloroquine Walker et al., 1987 29, DHA EMA Website, 44, doxycycline Raghuram et al., 1982 48, Nguyen et al., 1989 49, mefloquine Schwartz et al., 1982 57, primaquine White, 1985 62, proguanil Jeppesen et al., 1997 34, pyrimeth
[24] = 1987 9, proguanil Jeppesen et al., 1997 34
[25] = amodiaquine 600 mg SD (Day 6) + trimethoprim 160 mg QD (7 Days), ref Akande et al., 2015 1
[26] = from observed differences in metabolite formation, Jeppesen et al., 1997

SMILES: O=C1C(O)=C([C@H]2CC[C@H](c3ccc(Cl)cc3)CC2)C(=O)c2ccccc21 [Atovaquone, atovaquone]
- Caco-2 (Papp A-B) [1]: 300 10-6 cm/s
- CL IV ([2]; clinically observed, ref atovaquone Lavelle et al., 1994 17, chloroquine Walker et al., 1987 29, Gustafsson et al., 1983 30, doxycycline Raghuram et al., 1982 48, Nguyen et al., 1989 49, primaquine Mihaly et al., 1985 26, quinine White et al., 1983 77, Paintaud et al., 1993 78): 0.62 L/h
- CL renal ([2]; in vivo): 0 L/h
- fe (fraction excreted unchanged in urine) ([2]; in vivo): < 0.6%
- Risk as a perpetrator [3]: BCRP inhibitor
- Risk as a victim [3]: Cleared by biliary excretion
- AUC Obs ([4]; 250 mg QD, 0-24 h, ref Thapar et al., 2002 10): 254 µM·h
- AUC Obs ([4]; 250 mg SD, 0-inf, ref Thapar et al., 2002 10): 295 µM·h
- AUC Obs ([4]; 500 mg SD, AUC window Unknown, ref Rolan et al., 1994 9): 288000 ng·h/mL
- Cmax Obs ([4]; 500 mg SD, ref Rolan et al., 1994 9): 4400 ng/mL
- Cmax ([4]; 250 mg QD, ref Thapar et al., 2002 10): 13.8 µM
- Cmax ([4]; 250 mg SD, ref Thapar et al., 2002 10): 3.7 µM
- fu [5, 19]: 0.001
- pKa(s) [6]: 4.28

- fumic [9]: 0.911
SMILES: CC1(C)N=C(N)N=C(N)N1c1ccc(Cl)cc1 [Cycloguanil, cycloguanil]
- B:P ([7]; ref Charman et al.): 0.71
- Log D pH 7.4 [8]: 1.1
- AUC Obs ([4]; 200 mg QD (Day 14) EM, 0-24 h, ref Helsby et al., 1993 19): 3170 ng·h/mL
- AUC Obs ([4]; 200 mg QD (Day 14) PM, 0-24 h, ref Helsby et al., 1993 19): 1190 ng·h/mL
- AUC Obs ([4]; 200 mg SD EM, 0-72 h, ref Helsby et al., 1993 19): 2350 ng·h/mL
- AUC Obs ([4]; 200 mg SD PM, 0-72 h, ref Helsby et al., 1993 19): 983 ng·h/mL
- AUC Obs [4, 20]: 661 ng·h/mL
- Cmax Obs ([4]; 200 mg SD, ref Wattanagoon et al., 1987 17): 41 ng/mL
- fu ([5]; ref Charman et al., 2020 1): 0.75
- fumic [10]: 0.72

- AUC ratios Sim/Obs [11, 21]: 0.89
- Cmax ratios Sim/Obs [11, 22]: 1.00
- fraction unbound [12]: 0.26
SMILES: CCNCc1cc(Nc2ccnc3cc(Cl)ccc23)ccc1O [DEAQ, desethylamodiaquine]
- B:P ([7]; PBPK input, ref artemether Colussi et al., 1999 11, atovaquone Rolan et al., 1997 14, Beerahee, 1999 16, Charman et al., azithromycin Pene Dumitrescu et al., 2013 21, DEAQ Winstanley et al., 1987 9, proguanil weighted mean Helsby et al., 1993 61, Wattanagoon et al., 1987 63): 3
- CL renal [2, 23]: 1.4 L/h
- CL PO [2, 24]: 32 L/h
- AUC Obs ([4]; 600 mg QD (Day 3), 0-96 h, ref Scarsi et al., 2014 1): 14571 ng·h/mL
- Cmax Obs ([4]; 600 mg QD (Day 3), ref Scarsi et al., 2014 1): 495 ng/mL
- Main binding protein ([5]; ref amodiaquine, DEAQ Hietala, 2009 2, atovaquone Nixon et al., 2013 13, DHA Batty et al., 2004 41, mefloquine, tafenoquine (also AGP) Zsila et al., 2008 54): AGP
- AUC ratio Obs [13, 25]: 0.874
- Cmax ratio Obs [13, 25]: 0.75

SMILES: CCCCN(CCCC)CC(O)c1cc(Cl)cc2c1-c1ccc(Cl)cc1/C2=C/c1ccc(Cl)cc1 (stereo not drawn) [Lumefantrine, lumefantrine]
- Cmax ratios Sim/Obs ([11]; Day 7 concentrations, 480 mg BID (Day 22-24) + rifampicin 600 mg QD (Days 1-46)): 0.23
- Cmax ratios Sim/Obs [11, 22]: 0.61 and 0.92 and 1.08 and 1.06
- fmCYP3A4 [14]: 40%
- CLint CYP3A4 ([14]; microsomes): 0.9 µL/min/pmol
- CL PO [2, 24]: 3.5 L/h
- Risk as a perpetrator [3]: CYP2D6 inhibitor
- Risk as a victim [3]: Substrate of CYP3A4
- AUC Obs ([4]; 480 mg BID (Day 3) PM, 60-324 h, ref Huang et al., 2012 8): 418000 ng·h/mL
- AUC Obs ([4]; 480 mg BID (Day 3) PM, 62-480 h, ref Lefevre et al., 2002 7): 383000 ng·h/mL
- Cmax Obs ([4]; 480 mg BID (Day 3) PM, ref Huang et al., 2012 8): 11600 ng/mL
- Cmax Obs ([4]; 480 mg BID (Day 3) PM, ref Lefevre et al., 2002 7): 10000 ng/mL
- AUC Obs ([4]; 480 mg SD, 0-264 h, ref Lefevre et al., 2013 6): 236000 ng·h/mL
- AUC Obs ([4]; 480 mg SD, 0-inf, ref Lefevre et al., 2002 5): 207000 ng·h/mL
- Cmax Obs ([4]; 480 mg SD, ref Lefevre et al., 2002 5): 7910 ng/mL
- Cmax Obs ([4]; 480 mg SD, ref Lefevre et al., 2013 6): 8920 ng/mL
- fu [5, 19]: 0.003
- predicted AUC0-inf as % of the observed value [15]: approximately 66%
- predicted Cmax as % of the observed value [15]: approximately 62%
- AUC reduction ([13]; human, in vivo): 56%
- fm additional / undefined metabolism [16]: 60%
- B:P [17]: 0.55

- AUC ratios Sim/Obs [11, 21]: 1.01 and 0.80
- CLint CYP3A4 formation of cycloguanil [14]: 0.013 µL/min/pmol
- fmCYP3A4 [14]: 3%
- fumic [9]: 0.66
- Risk as a perpetrator [3]: CYP2D6 inhibitor
- Risk as a victim [3]: Substrate of CYP2C19 and CYP3A4
- fmCYP2C19 ([18]; fraction metabolised used in the PBPK model (proguanil: total, all routes)): 36%
- fmCYP2C19, additional [18, 26]: 9%
- fmCYP2C19, formation of CPBG [18, 26]: 8%
- fmCYP2C19, formation of cycloguanil [18, 26]: 17%
- CLint CYP2C19 - additional ([18]; retrograde calculations): 1.25 µL/min/pmol
- CLint CYP2C19-mediated formation of 4-Chlorphenylbiguanide (CPBG) ([18]; retrograde calculations): 1.07 µL/min/pmol
- CLint CYP2C19-mediated formation of Cycloguanil ([18]; retrograde calculations from CL PO): 2.23 µL/min/pmol
- fm additional / undefined metabolism [16]: 25%
- Additional Undefined metabolism ([16]; retrograde calculations): 13.46 µL/min/pmol
SMILES: [H]/N=C(\N/C(=N/[H])Nc1ccc(Cl)cc1)NC(C)C [Proguanil, proguanil]
- Caco-2 (Papp A-B) [1]: 3.5 10-6 cm/s
- CL renal [2, 23]: 26.64 L/h
- CL PO [2, 24]: 86.4 L/h
- fe (fraction excreted unchanged in urine) ([2]; in vivo): 36%
- Cmax Obs ([4]; 200 mg QD (Day 14) EM, ref Helsby et al., 1993 19): 190 ng/mL
- Cmax Obs ([4]; 200 mg QD (Day 14) PM, ref Helsby et al., 1993 19): 338 ng/mL
- AUC Obs ([4]; 200 mg SD EM, 0-inf, ref Helsby et al., 1990 18): 3396 ng·h/mL
- Cmax Obs ([4]; 200 mg SD EM, ref Helsby et al., 1993 19): 209 ng/mL
- AUC Obs ([4]; 200 mg SD PM, 0-inf, ref Helsby et al., 1990 18): 6563 ng·h/mL
- Cmax Obs ([4]; 200 mg SD PM, ref Helsby et al., 1993 19): 273 ng/mL
- Cmax Obs ([4]; 200 mg SD, dose corrected to free base for simulations, ref Wattanagoon et al., 1987 17): 170 ng/mL
- AUC Obs [4, 20]: 2975 ng·h/mL
